In patent publication US7625580B1, “Semi-interpenetrating or interpenetrating polymer networks for drug delivery and tissue engineering” (Massachusetts Institute of Technology, priority 2000, dated 2009):

Tested on: bovine chondroycytes
Assay: Biocompatibility of the photoinitiator, tested without polymer, on chondrocytes before and after UVA exposure
Type: cell-based
Conditions: for cell damage (morphology) after light exposure: UVA 3 minutes at 1-3 mW/cm^2
Description: Although the initiator PHK is approved for dental applications, the initiator was examined without the presence of polymer to ascertain the toxicity of the radical produced to initiate a photopolymerization. The PEOD is very reactive towards the radical so the lack of polymer would make all radicals available to damage cells (a worst case scenario). Three initiator concentrations (0.1, 0.05 and 0.01% (w/w)) were examined.
Chondrocyte isolated from calf shoulders were maintained ex vivo in cell culture medium (DMEM) at 37° C. and 5% CO2. Cells were passaged approximately once a week. Approximately 10,000 cells per well in an 8-well tissue culture plate were seeded. 1-hydroxycylcohexyl-phenyl-ketone (HPK) was added to DMEM to reach 0.1, 0.05 and 0.01% (w/w) concentrations. The cells were incubated for 24 hours in the present of the initiator to examine possible acute cell toxicity. The cells were then exposed to UVA radiation (2 mW/cm^2) for 3 minutes to activate the photoactive initiator.
To determine the effect of photoactive initiator concentration on cells before exposure to light, cells were exposed to a concentration of 0% (w/w), 0.1% (w/w), 0.05% (w/w), and 0.01% (w/w).
The effect of photoactive initiator concentration on cells after exposure to light for four days was determined by exposing cells to a concentration of 0% (w/w), 0.1% (w/w), 0.05% (w/w), and 0.01% (w/w). The cells were compared morphologically and in relation to cell proliferation for 4 days.
Further analysis was made between controls which were a) not exposed to initiator or UVA, b) cells exposed to UVA only and c) cells exposed to UVA in the presence of 0.01% PHK. The effect of photoactive initiator on cells when exposed to no light or photoactive initiator, light only, 0.01% light and initiator, and 24 hours after light exposure was determined.

In the case of `O=C(c1ccccc1)C1(O)CCCCC1` [initiator, 1-hydroxycylcohexyl-phenyl-ketone], the “effect on proliferation and morphology” value (0.01% PHK with UVA versus no-treatment and UVA-only controls, 24 hours after light exposure) was “does not appear to alter proliferation and morphology”, the “toxicity to cells before exposure to light” value (0.1, 0.05 and 0.01% (w/w), 24 hours incubation, no light) was “does not appear to be toxic” and the “cell damage (morphology) after light exposure” value (“cell damage (morphology)” below) (initiator 0.01% versus control) was “no damage”. The “cell damage (morphology)” value (initiator 0.05%) was “Variable damage” and the “cell damage (morphology)” value (initiator 0.1%) was “extensive cell death”.
